Measurements taken from ChEMBL document CHEMBL1201862, “PubChem BioAssay data set” (2004).
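Where inhibition never reached the appropriate level, the endpoint shown equals the highest concentration tested. Otherwise, values were interpolated linearly from a five-concentration, 48-hour dose response in 96-well plates. The concentration for 50% growth inhibition is given as GI50.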 The source made the active and inactive calls. No stated cut-off is given here; in the data, active = GI50 up to about 1.1 µM and inactive = higher.

Columns and labels:
Assay in all cases: NCI tumour cell line growth inhibition, 48 h
[1] = system: HCT-15
[2] = system: OVCAR-8
[3] = system: EKVX
[4] = system: NCI-H460
[5] = system: Malme-3M
[6] = system: NCI-H226
[7] = system: NCI-H522
[8] = system: NCI-H23
[9] = system: SF-295
[10] = system: K562
[11] = system: SNB-75
[12] = system: HCC 2998
[13] = system: CCRF-CEM
[14] = system: HCT-116
[15] = system: SF-539
[16] = system: HL-60
[17] = system: UACC-62

Structure (SMILES)	GI50 [1] [µM]	GI50 [2]	GI50 [3]	GI50 [4]	GI50 [5]	GI50 [6]	GI50 [7]	GI50 [8]	GI50 [9]	GI50 [10]	GI50 [11]	GI50 [12]	GI50 [13]	GI50 [14]	GI50 [15]	GI50 [16]	GI50 [17]
Cc1ccc(C2=C(c3ccccc3)C(=O)C(c3ccccc3)=C2c2ccc(C)cc2)cc1	32.4	73.6 µM (inactive)	38 µM (inactive)	36.1 µM (inactive)	31 µM (inactive)	65.5 µM (inactive)	72.9 µM (inactive)	31.1 µM (inactive)	18.4 µM (inactive)	22.1 µM (inactive)	87.3 µM (inactive)	> 100 µM (inactive)	17.2 µM (inactive)	31.4 µM (inactive)	18.3 µM (inactive)		
CSc1nc2nc(C(O)C(O)C(O)CO)cnc2c(=O)[nH]1 (stereo not drawn)	> 100	> 100 µM (inactive)	> 100 µM (inactive)	> 100 µM (inactive)	> 100 µM (inactive)	> 100 µM (inactive)	> 100 µM (inactive)	> 100 µM (inactive)	> 100 µM (inactive)	> 10 µM (inactive)	> 100 µM (inactive)	> 100 µM (inactive)	> 100 µM (inactive)	> 100 µM (inactive)	> 100 µM (inactive)	> 100 µM (inactive)	> 100 µM (inactive)
CC(=O)C1=CSC2[C@H](NC(=O)Cc3ccccc3)C(=O)N2C1C(=O)OC(c1ccccc1)c1ccccc1 (stereo partly drawn)		> 100 µM (inactive)	> 100 µM (inactive)		> 100 µM (inactive)	> 100 µM (inactive)	> 100 µM (inactive)	51.6 µM (inactive)	40.7 µM (inactive)	> 100 µM (inactive)	56.2 µM (inactive)	> 100 µM (inactive)	23.1 µM (inactive)	> 100 µM (inactive)	> 100 µM (inactive)	35.2 µM (inactive)	30.1 µM (inactive)
COc1ccc([C@@H]2CC(=O)N2)cc1	> 100	> 100 µM (inactive)	> 100 µM (inactive)	> 100 µM (inactive)	> 100 µM (inactive)	> 100 µM (inactive)	> 100 µM (inactive)	> 100 µM (inactive)	> 100 µM (inactive)	> 100 µM (inactive)	> 100 µM (inactive)		> 100 µM (inactive)	> 100 µM (inactive)	> 100 µM (inactive)	> 100 µM (inactive)	> 100 µM (inactive)
CCOC(=O)C(/C(=N/NC(=O)OC)C(=O)Nc1ccc(C(C)=O)cc1)c1cnc2ccccc2n1 (stereo not drawn)	> 100	> 100 µM (inactive)	> 100 µM (inactive)	> 100 µM (inactive)	> 100 µM (inactive)	> 100 µM (inactive)	> 100 µM (inactive)	> 100 µM (inactive)	> 100 µM (inactive)	> 100 µM (inactive)	90.8 µM (inactive)	> 100 µM (inactive)	> 100 µM (inactive)	> 100 µM (inactive)	> 100 µM (inactive)	> 100 µM (inactive)	> 100 µM (inactive)
COc1ccc(/C=N\O[Si](C)(C)C(C)(C)C)cc1O[Si](C)(C)C(C)(C)C	18.2	22.8 µM (inactive)	21 µM (inactive)	20.6 µM (inactive)	17.6 µM (inactive)			19.4 µM (inactive)	17.2 µM (inactive)	18.3 µM (inactive)	22.3 µM (inactive)	17.3 µM (inactive)	21.6 µM (inactive)	15.7 µM (inactive)	18.5 µM (inactive)	19.6 µM (inactive)	18.8 µM (inactive)
O=C1CCN(CCC(F)(F)C(F)(F)C(F)(F)C(F)(F)F)C(=S)N1	> 100	> 100 µM (inactive)	> 100 µM (inactive)	> 100 µM (inactive)	> 100 µM (inactive)	> 100 µM (inactive)	> 100 µM (inactive)	> 100 µM (inactive)	> 100 µM (inactive)	> 100 µM (inactive)	> 100 µM (inactive)		> 100 µM (inactive)	> 100 µM (inactive)	> 100 µM (inactive)	> 100 µM (inactive)	> 100 µM (inactive)
CC(C)=CC(=O)Cc1nc2cc(C)c(C)cc2[nH]c1=O	> 100		9.89 µM (inactive)	> 100 µM (inactive)	> 100 µM (inactive)	> 100 µM (inactive)		> 100 µM (inactive)	90.4 µM (inactive)	> 100 µM (inactive)	> 100 µM (inactive)	> 100 µM (inactive)	> 100 µM (inactive)	> 100 µM (inactive)	> 100 µM (inactive)	> 100 µM (inactive)	> 100 µM (inactive)
BrC12c3ccccc3Sc3ccccc3C1(Br)c1ccccc12 (stereo not drawn)	17.8	32.1 µM (inactive)		40.2 µM (inactive)	30.7 µM (inactive)	16.7 µM (inactive)	17.5 µM (inactive)		23.7 µM (inactive)	22.2 µM (inactive)	27.3 µM (inactive)	28.8 µM (inactive)	4.93 µM (inactive)	22 µM (inactive)	18.3 µM (inactive)	5.21 µM (inactive)	16.7 µM (inactive)
O=C(CCc1n[nH]c(=S)o1)Nc1ccccc1C(F)(F)F	20.2	> 100 µM (inactive)	> 100 µM (inactive)	> 100 µM (inactive)	> 100 µM (inactive)	> 100 µM (inactive)	> 100 µM (inactive)	> 100 µM (inactive)	> 100 µM (inactive)	66.7 µM (inactive)	> 100 µM (inactive)	> 100 µM (inactive)	> 100 µM (inactive)	> 10 µM (inactive)	> 100 µM (inactive)	> 100 µM (inactive)	> 100 µM (inactive)
CCN(CC)CCNC(=O)c1cccc2nc3ccccc3nc12	6.53	14 µM (inactive)	23.4 µM (inactive)		11.4 µM (inactive)	8.15 µM (inactive)	28.5 µM (inactive)	13.7 µM (inactive)	11 µM (inactive)	1.38 µM (inactive)	> 36.8 µM (inactive)	14.2 µM (inactive)		4.16 µM (inactive)	8.45 µM (inactive)		18.9 µM (inactive)
COC(=O)c1cc(C)c(C)c2c1NC(=O)CNC2=O	> 100	> 100 µM (inactive)	> 100 µM (inactive)	> 100 µM (inactive)				> 100 µM (inactive)	> 100 µM (inactive)	> 100 µM (inactive)	> 100 µM (inactive)	> 100 µM (inactive)	> 100 µM (inactive)	> 100 µM (inactive)	> 100 µM (inactive)	> 100 µM (inactive)	> 100 µM (inactive)
COC(=O)/C(=N\NC(N)=S)C(C(=O)OC)C(=O)C(=O)Nc1ccc(C)cc1 (stereo not drawn)	> 100	> 100 µM (inactive)	> 100 µM (inactive)	> 100 µM (inactive)	> 100 µM (inactive)	> 100 µM (inactive)	> 100 µM (inactive)	> 100 µM (inactive)	> 100 µM (inactive)	> 100 µM (inactive)	41.9 µM (inactive)	> 100 µM (inactive)	> 100 µM (inactive)	> 100 µM (inactive)	> 100 µM (inactive)	> 100 µM (inactive)	> 100 µM (inactive)
Sc1nnc(COc2ccc(Cl)cc2)[nH]1	> 100	> 100 µM (inactive)		> 100 µM (inactive)	> 100 µM (inactive)	> 100 µM (inactive)	> 100 µM (inactive)	> 100 µM (inactive)	> 100 µM (inactive)	> 100 µM (inactive)	> 100 µM (inactive)	> 100 µM (inactive)	> 100 µM (inactive)	> 100 µM (inactive)	> 100 µM (inactive)	> 100 µM (inactive)	> 100 µM (inactive)
CC1=NN(C(=O)c2ccc(Cl)cc2)C(=O)/C1=C/c1ccc(Cl)cc1		> 100 µM (inactive)	> 100 µM (inactive)	> 100 µM (inactive)	> 100 µM (inactive)		> 100 µM (inactive)	> 100 µM (inactive)	> 100 µM (inactive)	> 100 µM (inactive)		> 100 µM (inactive)	> 100 µM (inactive)	> 100 µM (inactive)	> 100 µM (inactive)	> 100 µM (inactive)	> 100 µM (inactive)
CC(=O)OC1CCCn2c1nc1c2C(=O)C(C)=C(N2CC2)C1=O (stereo not drawn)	0.207	0.388 µM (active)	0.721 µM (active)	0.0798 µM (active)	0.219 µM (active)	0.318 µM (active)	0.156 µM (active)	0.0923 µM (active)	0.16 µM (active)	0.891 µM (active)	0.301 µM (active)	0.232 µM (active)	3.51 µM (inactive)	0.409 µM (active)	0.519 µM (active)	2.41 µM (inactive)	0.301 µM (active)
CN(C)/N=N/c1ccc(C(N)=O)cc1	> 100	> 100 µM (inactive)	> 100 µM (inactive)	> 100 µM (inactive)	> 100 µM (inactive)	> 100 µM (inactive)	> 100 µM (inactive)	> 100 µM (inactive)	> 100 µM (inactive)	> 100 µM (inactive)	97.7 µM (inactive)	> 100 µM (inactive)	> 100 µM (inactive)	> 100 µM (inactive)	> 100 µM (inactive)	> 100 µM (inactive)	> 100 µM (inactive)
OCCCCn1cnc2c(O)ncnc21	> 100	> 100 µM (inactive)	> 100 µM (inactive)	> 100 µM (inactive)	> 100 µM (inactive)	> 100 µM (inactive)		> 100 µM (inactive)	> 100 µM (inactive)	> 100 µM (inactive)	> 100 µM (inactive)	> 100 µM (inactive)	> 100 µM (inactive)	> 100 µM (inactive)	> 100 µM (inactive)	> 100 µM (inactive)	> 100 µM (inactive)
